For the test, the target named is T1, human NEP (Homo sapiens, UniProt P08473).
T1 construct: purchased R&D Systems, Minneapolis, Minn; 1182-ZN
Briefly: In vitro enzyme inhibition assay at human NEP (fluorogenic peptide substrate). Format: biochemical. To be noted: recombinant human NEP, substrate Mca-D-Arg-Arg-Leu-Dap-(Dnp)-OH 10 μM, 37° C., values given as ranges; for Ki: read-out: pKi values at human NEP (converted). As for the experimental part: The inhibitory activities of compounds at human and rat neprilysin (EC 3.4.24.11; NEP) and human angiotensin converting enzyme (ACE) were determined using in vitro assays as described below.
Recombinant human NEP and recombinant human ACE were obtained commercially (R&D Systems, Minneapolis, Minn., catalog numbers 1182-ZN and 929-ZN, respectively). The fluorogenic peptide substrate Mca-D-Arg-Arg-Leu-Dap-(Dnp)-OH (Medeiros et al. (1997) Braz. J. Med. Biol. Res. 30:1157-62; Anaspec, San Jose, Calif.) and Abz-Phe-Arg-Lys(Dnp)-Pro-OH (Araujo et al. (2000) Biochemistry 39:8519-8525; Bachem, Torrance, Calif.) were used in the NEP and ACE assays respectively.
The assays were performed in 384-well white opaque plates at 37° C. using the fluorogenic peptide substrates at a concentration of 10 μM in Assay Buffer (NEP: 50 mM HEPES, pH 7.5, 100 mM NaCl, 0.01% polyethylene glycol sorbitan monolaurate (Tween-20), 10 μM ZnSO4; ACE: 50 mM HEPES, pH 7.5, 100 mM NaCl, 0.01% Tween-20, 1 μM ZnSO4).
Test compounds were assayed over the range of concentrations from 10 μM to 20 pM. Test compounds were added to the enzymes and incubated for 30 minute at 37° C. prior to initiating the reaction by the addition of substrate. Reactions were terminated after 20 minutes of incubation at 37° C. by the addition of glacial acetic acid to a final concentration of 3.6% (v/v).
Plates were read on a fluorometer with excitation and emission wavelengths set to 320 nm and 405 nm, respectively Inhibition constants were obtained by nonlinear regression of the data using the equation (GraphPad Software, Inc., San Diego, Calif.): v=v0/[1+(I/K′)] where v is the reaction rate, v0 is the uninhibited reaction rate, I is the inhibitor concentration and K′ is the apparent inhibition constant.
Compounds of the invention were tested in this assay and found to have pKi values at human NEP as follows.

Molecules are shown by their SMILES.

Here are results for 26 compounds from patent US8993752B2, “Neprilysin inhibitors” (Theravance Biopharma R&D IP, LLC, priority 2011, dated 2015).

T1 sequence (P08473 whole entry): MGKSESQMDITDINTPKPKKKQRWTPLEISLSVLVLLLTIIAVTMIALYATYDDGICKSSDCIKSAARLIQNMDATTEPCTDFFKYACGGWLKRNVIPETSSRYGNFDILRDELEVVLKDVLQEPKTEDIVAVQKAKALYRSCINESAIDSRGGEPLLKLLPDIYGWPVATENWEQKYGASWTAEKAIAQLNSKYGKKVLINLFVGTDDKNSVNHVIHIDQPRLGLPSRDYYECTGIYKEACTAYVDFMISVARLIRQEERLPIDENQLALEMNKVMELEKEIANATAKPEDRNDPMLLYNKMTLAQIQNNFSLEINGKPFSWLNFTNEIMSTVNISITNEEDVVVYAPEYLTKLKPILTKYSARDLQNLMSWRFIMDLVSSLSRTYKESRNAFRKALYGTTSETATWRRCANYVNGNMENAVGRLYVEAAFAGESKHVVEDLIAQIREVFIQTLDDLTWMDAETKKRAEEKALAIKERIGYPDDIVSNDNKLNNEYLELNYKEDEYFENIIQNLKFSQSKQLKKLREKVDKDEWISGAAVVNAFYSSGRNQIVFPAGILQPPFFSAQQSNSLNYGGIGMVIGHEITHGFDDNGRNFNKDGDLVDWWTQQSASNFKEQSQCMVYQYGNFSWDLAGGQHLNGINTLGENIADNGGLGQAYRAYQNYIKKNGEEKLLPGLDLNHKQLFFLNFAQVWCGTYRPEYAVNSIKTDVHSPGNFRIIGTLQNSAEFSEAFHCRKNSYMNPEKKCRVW

`O=C(O)C[C@@H](Cc1ccccc1Cl)NC(=O)c1cc(C(=O)O)n(Cc2cccc(F)c2)n1` [Example 11-6, 5-[(R)-2-Carboxy-1-(2-chloro-benzyl)-ethylcarbamoyl]-2-(3-fluoro-benzyl)-2H-pyrazole-3-carboxylic acid]: the Ki is 12.6 to 100 nM. With `CCOc1ncc(Cn2nc(C(=O)N[C@H](Cc3ccccc3Cl)[C@@H](O)C(=O)O)cc2C(=O)O)cn1` [Example 2-62, 5-[(1R,2R)-2-Carboxy-1-(2-chloro-benzyl)-2-hydroxy-ethylcarbamoyl]-2-(2-ethoxy-pyrimidin-5-ylmethyl)-2H-pyrazole-3-carboxylic acid], the Ki was at most 1 nM. For the compound `O=C(N[C@H](Cc1ccccc1)[C@@H](O)C(=O)O)c1cc(C(=O)O)n(Cc2ccccc2)n1` [Example 8-8, 2-Benzyl-5-((1R,2R)-1-benzyl-2-carboxy-2-hydroxy-ethylcarbamoyl)-2H-pyrazole-3-carboxylic acid], the Ki is 1.26 to 10 nM.

For `O=C(N[C@H](Cc1ccccc1Cl)[C@@H](O)C(=O)O)c1cc(C(=O)O)n(CCc2ccccc2)n1` [Example 2-59, 5-[(1R,2R)-2-Carboxy-1-(2-chloro-benzyl)-2-hydroxy-ethylcarbamoyl]-2-phenethyl-2H-pyrazole-3-carboxylic acid], the Ki was 12.6 to 100 nM. Regarding `COCCN(C)C(=O)c1cc(C(=O)N[C@H](Cc2ccccc2C(F)(F)F)[C@@H](O)C(=O)O)n[nH]1` [Example 6-9], the “pKi values at human NEP” value was 7.0-7.9. Take `O=C(O)C[C@@H](Cc1ccccc1C(F)(F)F)NC(=O)c1cc(C(=O)O)[nH]n1` [Example 12, 5-[(R)-2-Carboxy-1-(2-trifluoromethylbenzyl)-ethylcarbamoyl]-2H-pyrazole-3-carboxylic Acid]: the Ki was 12.6 to 100 nM.

For `O=C(N[C@H](Cc1ccccc1Cl)[C@@H](O)C(=O)O)c1cc(C(=O)O)n(Cc2c(F)cc(F)cc2F)n1` [Example 2-42, 5-[(1R,2R)-2-Carboxy-1-(2-chloro-benzyl)-2-hydroxy-ethylcarbamoyl]-2-(2,4,6-trifluoro-benzyl)-2H-pyrazole-3-carboxylic acid], the Ki is 1.26 to 10 nM. On the same count and under the same terms, the value for `CSc1ccc(Cn2nc(C(=O)N[C@H](Cc3ccccc3)[C@@H](O)C(=O)O)cc2C2CC2)cc1` [Example 8-23, (2R,3R)-3-{[5-Cyclopropyl-1-(4-methylsulfanyl-benzyl)-1H-pyrazole-3-carbonyl]-amino}-2-hydroxy-4-phenyl-butyric acid] was 12.6 to 100 nM. Turning to `O=C(N[C@H](Cc1ccccc1)[C@@H](O)C(=O)O)c1cc([N+](=O)[O-])[nH]n1` [Example 8-11, (2R,3R)-2-Hydroxy-3-[(5-nitro-1H-pyrazole-3-carbonyl)-amino]-4-phenyl-butyric acid], the Ki is 12.6 to 100 nM. The same measure, in the same setting: the same measure for `O=C(N[C@H](Cc1ccccc1Cl)[C@@H](O)C(=O)O)c1cc(-c2ccc3ccccc3c2)[nH]n1` [Example 2-53, (2R,3R)-4-(2-Chloro-phenyl)-2-hydroxy-3-[(5-naphthalen-2-yl-1H-pyrazole-3-carbonyl)-amino]-butyric acid]: 12.6 to 100 nM.

In the case of `COCCn1nc(C(=O)N[C@H](Cc2ccccc2)[C@@H](O)C(=O)O)cc1C(=O)O` [Example 8-13, 5-((1R,2R)-1-Benzyl-2-carboxy-2-hydroxy-ethylcarbamoyl)-2-(2-methoxy-ethyl)-2H-pyrazole-3-carboxylic acid], the Ki is 12.6 to 100 nM.

As to `COc1c(F)cc(Cn2nc(C(=O)N[C@H](Cc3ccccc3Cl)[C@@H](O)C(=O)O)cc2C(=O)O)cc1F` [Example 2-34, 5-[(1R,2R)-2-Carboxy-1-(2-chloro-benzyl)-2-hydroxy-ethylcarbamoyl]-2-(3,5-difluoro-4-methoxy-benzyl)-2H-pyrazole-3-carboxylic acid], the Ki was at most 1 nM.

For `CC(=O)Nc1cccc(-c2cc(C(=O)N[C@H](Cc3ccccc3Cl)[C@@H](O)C(=O)O)n[nH]2)c1` [Example 2-47, (2R,3R)-3-{[5-(3-Acetylamino-phenyl)-1H-pyrazole-3-carbonyl]-amino}-4-(2-chloro-phenyl)-2-hydroxy-butyric acid], the Ki is 12.6 to 100 nM. As for `O=C(N[C@H](Cc1ccccc1Cl)[C@@H](O)C(=O)O)c1cc(C(=O)O)n(Cc2ccc(OC(F)(F)F)cc2)n1` [Example 2-33, 5-[(1R,2R)-2-Carboxy-1-(2-chloro-benzyl)-2-hydroxy-ethylcarbamoyl]-2-(4-trifluoromethoxy-benzyl)-2H-pyrazole-3-carboxylic acid], the Ki is at most 1 nM. Same read-out and setting: the value for `O=C(N[C@H](Cc1ccccc1Cl)[C@@H](O)C(=O)O)c1cc(C(=O)O)n(Cc2ccc(Cl)cc2C(F)(F)F)n1` [Example 2-12, 5-[(1R,2R)-2-Carboxy-1-(2-chloro-benzyl)-2-hydroxy-ethylcarbamoyl]-2-(4-chloro-2-trifluoromethyl-benzyl)-2H-pyrazole-3-carboxylic acid] was 12.6 to 100 nM; that for `O=C(N[C@H](Cc1ccccc1Cl)[C@@H](O)C(=O)O)c1cc(C(=O)O)n(Cc2ccc(OC(F)F)cc2)n1` [Example 2-26, 5-[(1R,2R)-2-Carboxy-1-(2-chloro-benzyl)-2-hydroxy-ethylcarbamoyl]-2-(4-difluoromethoxy-benzyl)-2H-pyrazole-3-carboxylic acid] was at most 1 nM; that for `O=C(N[C@H](Cc1ccccc1C(F)(F)F)[C@@H](O)C(=O)O)c1cc(C(=O)NC2CC2)[nH]n1` [Example 6-6, (2R,3R)-3-[(5-Cyclopropylcarbamoyl-1H-pyrazole-3-carbonyl)-amino]-2-hydroxy-4-(2-trifluoromethyl-phenyl)-butyric acid] was 12.6 to 100 nM.

For the compound `O=C(N[C@H](Cc1ccccc1Cl)[C@@H](O)C(=O)O)c1cc(C(=O)O)n(Cc2ccc(C(F)(F)F)cc2)n1` [Example 2-25, 5-[(1R,2R)-2-Carboxy-1-(2-chloro-benzyl)-2-hydroxy-ethylcarbamoyl]-2-(4-trifluoromethyl-benzyl)-2H-pyrazole-3-carboxylic acid], the Ki was 1.26 to 10 nM.

In the case of `O=C(N[C@H](Cc1ccccc1Cl)[C@@H](O)C(=O)O)c1cc(-c2cnccn2)[nH]n1` [Example 2-51, (2R,3R)-4-(2-Chloro-phenyl)-2-hydroxy-3-[(5-pyrazin-2-yl-1H-pyrazole-3-carbonyl)-amino]-butyric acid], the Ki was 12.6 to 100 nM. For the compound `COc1ccc(Cn2nc(C(=O)N[C@H](Cc3ccccc3Cl)[C@@H](O)C(=O)O)cc2C(=O)O)cc1F` [Example 2-37, 5-[(1R,2R)-2-Carboxy-1-(2-chloro-benzyl)-2-hydroxy-ethylcarbamoyl]-2-(3-fluoro-4-methoxy-benzyl)-2H-pyrazole-3-carboxylic acid], the Ki was 1.26 to 10 nM. Still for that read-out and setting: the same measure for `O=C(O)C[C@@H](Cc1ccccc1Cl)NC(=O)c1cc(C(=O)O)n(Cc2ccncc2)n1` [Example 11-11, 5-[(R)-2-Carboxy-1-(2-chloro-benzyl)-ethylcarbamoyl]-2-pyridin-4-ylmethyl-2H-pyrazole-3-carboxylic acid]: 12.6 to 100 nM. Take `O=C(N[C@H](Cc1ccccc1Cl)[C@@H](O)C(=O)O)c1cc(-c2ccccc2O)[nH]n1` [Example 2-50, (2R,3R)-4-(2-Chloro-phenyl)-2-hydroxy-3-{[5-(2-hydroxy-phenyl)-1H-pyrazole-3-carbonyl]-amino}-butyric acid]: the Ki was 12.6 to 100 nM. Regarding `O=C(N[C@H](Cc1ccccc1Cl)[C@@H](O)C(=O)O)c1cc(C(=O)O)n(Cc2cccc(Cl)c2)n1` [Example 2-10, 5-[(1R,2R)-2-Carboxy-1-(2-chloro-benzyl)-2-hydroxy-ethylcarbamoyl]-2-(3-chloro-benzyl)-2H-pyrazole-3-carboxylic acid], the Ki is 1.26 to 10 nM. For the compound `COc1ccc(Cn2nc(C(=O)N[C@H](Cc3ccccc3Cl)[C@@H](O)C(=O)O)cc2O)c(F)c1F` [Example 2-68, (2R,3R)-4-(2-Chloro-phenyl)-3-{[1-(2,3-difluoro-4-methoxy-benzyl)-5-hydroxy-1H-pyrazole-3-carbonyl]-amino}-2-hydroxy-butyric acid], the Ki was 12.6 to 100 nM. As to `O=C(N[C@H](Cc1ccccc1Cl)[C@@H](O)C(=O)O)c1cc(-c2ccccc2C(F)(F)F)n[nH]1` [Example 3-2, (2R,3R)-4-(2-Chloro-phenyl)-2-hydroxy-3-{[5-(2-trifluoromethyl-phenyl)-2H-pyrazole-3-carbonyl]-amino}-butyric acid], the Ki is 12.6 to 100 nM. Take `O=C(N[C@H](Cc1ccccc1Cl)[C@@H](O)C(=O)O)c1cc(C(=O)O)n(Cc2cc(F)cc(Cl)c2)n1` [Example 2-16, 5-[(1R,2R)-2-Carboxy-1-(2-chloro-benzyl)-2-hydroxy-ethylcarbamoyl]-2-(3-chloro-5-fluoro-benzyl)-2H-pyrazole-3-carboxylic acid]: the Ki was 1.26 to 10 nM.
